Like-named read-outs stand apart in the source and are kept apart here.
Experiments:
[1] = Stability in simulated gastric fluid; conditions: simulated gastric fluid with pepsin, pH 1
Description: Compound stocks were 10 mM in DMSO. The internal standard was 5 µM warfarin in methanol. […] 1 ml SGF was added to a 1.1 ml 96-well storage plate and mixed well with 10 µl compound stock. The plate was then incubated at 37 °C and shaken at 60 rpm. […] At each time point, 100 µl was removed to a 1 ml storage plate and 300 µl internal standard was added to quench the reaction. […] The compound was detected by SIR and quantification was based on peak area of test compound and the internal standard.

[2] = Liver microsomal stability, rat; conditions: liver microsomes, pH 7.4
Description: One part of 10 mM DMSO compound stock was mixed with 4 parts of acetonitrile to make 2 mM diluted compound stock in DMSO and acetonitrile. 29.1 µL diluted compound stock was added to 2.3 mL liver microsomal solution and vortexed to make microsomal solution with compound. […] For the 0 h time point, 450 µL pre-cooled (4 °C) internal standard (10 µM warfarin in methanol) was added to the first three columns before the reaction was initiated. 1.25 ml of microsome assay solution A (Fisher Scientific, #NC9255727) was combined with 0.25 ml of solution B (Fisher Scientific, #NC9016235) in 3.5 ml of potassium phosphate buffer (0.1 M, pH 7.4). 45 µL of this A+B solution was added to each well of the 96-well storage plate (reaction plate). Liquid in the first 3 columns was moved to another storage plate (quenched plate). The reaction plate was then sealed, incubated at 37 °C, and shaken at a speed of 60 rpm. Time points (0.5 h, 1 h, 2 h) were taken. At each time point, 450 µL pre-cooled internal standard was added to 3 rows in the reaction plate, and the liquid was then transferred to the quenched plate. […] 200 µL supernatant was transferred to a 96-well plate and analyzed by ultra-performance liquid chromatography-mass spectrometry (UPLC-MS) (Waters Inc.). The compounds and internal standard were detected by selected ion recording (SIR).

[3] = system: Trypanosoma cruzi CL Brener epimastigotes; assay: Growth inhibition of Trypanosoma cruzi epimastigotes (SYBR Green); type: cell-based; conditions: 72 h, 10 μM to 1 nM
Description: Trypanosoma cruzi CL Brener epimastigotes were obtained from Dr. Fred Buckner of the Department of Medicine at the University of Washington. T. cruzi epimastigotes were grown in liver infusion tryptose medium and seeded in a 96-well plate at 10^5 epimastigotes per well in 100 μl medium. For each well, 1 μl of compound in DMSO at 100X the desired final concentration was added. Epimastigotes were exposed to a range of compound concentrations from 10 μM to 1 nM to determine EC50. Plates were incubated at 26°C for 72 h, then 10 μl 50X SYBR Green in 1% Triton X-100 was added to each well followed by incubation with shaking at room temperature for 30 minutes. Fluorescence was read (excitation 485nm, emission 535nm) with the Victor^2 multiplate reader (PerkinElmer). All data processing and visualization were performed using GraphPad Prism 6 software.

[4] = Single oral dose pharmacokinetic study in mice; type: in vivo, mouse; conditions: single oral gavage; for half-life: read-out: t½ (converted)
Description: Female BALB/c mice of 17-21 grams were purchased from Charles River Laboratories (Wilmington, MA). Food and water were provided ad libitum. […] All animal received 100 ± 20 µL of compound solution in formulation (10/10/40/40: […] Animals were euthanized via cardiac puncture at 48 h post injection. Blood samples were treated with 10 µL of EDTA sodium solution to prevent coagulation. […] The supernatant (40 µL) was collected and mixed with 2 parts of Milli-Q water and centrifuged again at 4000 rpm for 20 min at 4 °C. Plasma concentration was determined with a partially validated LC/MS-MS assay with multiple reaction monitoring detection (AB Sciex, Framingham, MA). The summary of the LC/MS/MS method is provided below. The assay lower limit of quantification (LLOQ) was 4.57 nM in plasma. […] The Area Under the Concentration-Time Curve (AUC) was calculated with the linear trapezoidal, linear interpolation rule using mean concentrations and nominal times. The standard error of the AUC to the last time point (AUClast) was generated using the sparse sampling option. The terminal elimination rate (Lambda_z) and half-life (HL_Lambda_z) was determined using the default “Best Fit” method. The predicted AUC from the last time point to infinity (AUCINF_pred) was calculated as AUClast plus Clast(pred)/Lambda_z. Clearance (CL or CL/F) was calculated as Dose/AUCINF_pred. If ≥2/3rds of the observed concentrations were below LLOQ, the mean concentration was treated missing. The calibration curve was obtained as follows. The calibration was done using the same biological matrices to ensure similar recovery. […] All concentrations in the calibration range must be no more than 20% deviation. If there were any points with more than 20% deviation on the high or low end, the calibration range would be truncated. If an outlier occurred in the middle of the curve, the whole curve would be re-done. The signal: noise of the compound peak at the H/LLOQ must be greater than 5. […] The samples were tested on the same or the second day.

[5] = Parallel Artificial Membrane Permeability Assay (PAMPA); conditions: pH 7.4
Description: Parallel Artificial Membrane Permeability Assay (PAMPA) was conducted by Biomek FX lab automation workstation (Beckman Coulter, Inc.) and PAMPA evolution 96 command software (pION Inc.). A 3 µL aliquot of […] test compound stock in DMSO was mixed with 597 µL of isotonic citrate phosphate buffered saline to make diluted test compound. Diluted test compound (150 µL) was transferred to a UV plate (pION Inc.) and the UV spectrum was read as the reference plate. The membrane on a pre-loaded PAMPA sandwich (pION Inc.) was painted with 4 µL GIT lipid (pION Inc.). The acceptor chamber was then filled with 200 µL acceptor solution buffer, (pION Inc.), and the donor chamber was filled with 180 µL diluted test compound. The PAMPA sandwich was assembled, placed on the Gut-Box and stirred for 30 min. The Aqueous Boundary Layer was set to 40 µm for stirring. The UV spectrum (250-500 nm) of the donor and the acceptor solutions were recorded. The permeability coefficient was calculated using PAMPA Evolution 96 Command software (pION Inc.) based on the AUC of the reference plate, the donor plate and the acceptor plate. All compounds were tested in triplicate.

[6] = female, BALB/c, mouse, plasma, po, 25 mg/kg
[7] = female, BALB/c, mouse, plasma, po, 50 mg/kg

With `COc1ccc(-c2c(C(F)(F)F)oc3c(CN4CCN(C)CC4)c(O)ccc3c2=O)cc1OC` [Compound 4] the half-life at 99 µM [1] was over 48 h, the half-life at 20 μM [2] was over 4 h and the “T. cruzi epimastigotes EC50” value [3] was “no inhibition”. For the same compound, the Cmax [4, 6] was 3.2 µM, the Tmax [4, 6] was at most 1 h and the half-life ([4]; female, BALB/c, mouse, plasma, po, 25 mg/kg, 25 mg/kg, plasma) was 3 h. The AUC ([4]; female, BALB/c, mouse, 25 mg/kg, plasma) was 16.7 µM·h, the CL ([4]; 25 mg/kg) was 52.2 mL/min/kg and the Vd ([4]; 25 mg/kg) was 14.2 L/kg. It also gave a t½ ([4]; 25 mg/kg, plasma) of 3.2 h and a Papp at 30 min, 0.05 µM [5] of 375 ×10⁻⁶ cm/s.
Work on `Cc1ccc(-c2nc3ccccc3s2)cc1NC(=O)c1cc([N+](=O)[O-])c(N2CCN(C)CC2)cc1Cl` [Compound 5] yielded a half-life at 99 µM [1] of over 24 h, a half-life at 20 μM [2] of over 4 h and an EC50 ([3]; Trypanosoma cruzi, read-out: T. cruzi epimastigotes EC50) of 86 ± 30 nM. It also gave a Cmax [4, 7] of 6.49 µM, a Tmax [4, 7] of 4 h and a half-life ([4]; female, BALB/c, mouse, plasma, po, 50 mg/kg, 50 mg/kg, plasma) of 7.1 h. It also gave an AUC ([4]; female, BALB/c, mouse, 50 mg/kg, plasma) of 83.2 µM·h, a CL ([4]; 50 mg/kg) of 19.2 mL/min/kg and a Vd ([4]; 50 mg/kg) of 11.8 L/kg. It also gave a Cmax ([4]; 50 mg/kg, plasma) of 6.5 µM and a Papp at 30 min, 0.05 µM [5] of 237 ×10⁻⁶ cm/s.

Reference: publication PMC5764437, “Discovery of novel, orally bioavailable, antileishmanial compounds using phenotypic screening” (PLoS Neglected Tropical Diseases, 2017)
